For series [1], the target named is T1, Recombinant active human SCCE (Homo sapiens, UniProt P49862).
T1 construct: made in house; host or cells: murine C127 cells transfected with a BPV vector (murine MT promoter)
The series can be described thus: SCCE Inhibitor Test (chromogenic substrate S-2586, absorbance at 405 nm). The format is biochemical. The conditions noted are these: for IC50: 10 min preincubation, 1 mM S-2586, 60 min, 37° C, pH 7.2; for remaining activity at 1 µM: 1 μM compound; for remaining activity at 5 µM: 5 μM compound. The method, then: Recombinant active human SCCE was produced essentially as described in WO 95/00651. The cDNA encoding human SCCE was introduced into a BPV vector under the control of the murine MT promoter and expressed in transfected C127 cells. The produced SCCE was purified and activated using immobilized bovine trypsin.
SCCE activity was determined using the chromogenic substrate S-2586 (MeO-Suc-Arg-Pro-Tyr-pNA) (Chromogenix, Mölndal, Sweden) by measurement of the change in absorbance at 405 nm essentially as described in WO 95/00651. Inhibitors were dissolved in DMSO and added to the reaction mixture (10 mM sodium phosphate, pH 7.2, 0.5 M NaCl, 2.5 μg/ml SCCE) at appropriate concentrations followed by incubation for 10 min before the start of the enzymatic reaction by subsequent addition of the substrate S-2586 to a final concentration of 1 mM. The change in absorbance at 405 nm after 60 min was recorded and used as a measure of SCCE activity. The assay temperature was 37° C. […] The IC50 values were used to identify compounds as SCCE inhibitors of the invention.

Series [2] deals with Transgenic mice over-expressing human SCCE. As to the kind of experiment: Transepidermal water loss (TEWL) in SCCE transgenic mice after topical treatment. It counts as in vivo. The conditions noted are these: both concentrations (30 μM and 300 μM), topical once daily, 8 days, relative to positive control Betamethasone. An excerpt:
(§1) Transgenic mice over-expressing human SCCE under the control of the SV40 early promoter were generated as described in WO 02/062135. These transgenic mice show a pattern of SCCE-expression which is similar to the expression pattern seen in psoriasis lesions and chronic lesions in atopic dermatitis in humans, i.e. expression in suprabasal cells which increases with distance from the basal layer. The transgenic mice develop pathological skin changes with marked hyperkeratosis, increased epidermal thickness, and dermal inflammation. From the age of 8-10 weeks transgenic mice show signs of itch, the frequency of which increase with age. The increase marked changes in skin morphology including increased epidermal thickness, also causes higher transepidermal water loss.
Transgenic mice, 6-9 month of age, were treated daily with compound I-3 (2-(2-Iodo-phenyl)-6,7-dimethoxy-benzo[d][1,3]oxazin-4-one) which was identified as an SCCE inhibitor as described above during 8 days. The substance was initially dissolved in DMSO and formulated in vehicle containing 45% isopropanol, 6% 1,2-propanediol with a 1.2% final concentration of DMSO. […]
TEWL was measured on the back of mice with an Evaporimeter from DermaLAB (Cortex Technology ApS, Hadsund, Denmark) according to manufactures protocol. […] TEWL was measured on in the morning at day 0, 3, 5 and 8 for 1 min repeated twice.

Series [3] has the same test system. As to the kind of experiment: Histological studies of skin morphology in SCCE transgenic mice after topical treatment. It counts as in vivo. The settings on record: for Unusually thin epidermis / Morphology changes: topical once daily 8 days, day 8; for Unusually thin epidermis: mice affected/mice in group; for Morphology changes: mice with changes/mice in group; for side effects (unusually thin epidermis): day 8 histology.
Source text: as §1
Transgenic mice, 6-9 month of age, were treated daily with compound I-3 (2-(2-Iodo-phenyl)-6,7-dimethoxy-benzo[d][1,3]oxazin-4-one) which was identified as an SCCE inhibitor as described above during 8 days. The substance was initially dissolved in DMSO and formulated in vehicle containing 45% isopropanol, 6% 1,2-propanediol with a 1.2% final concentration of DMSO. Two different concentrations of inhibitor, 300 μM and 30 μM, were formulated.
The study contained four different treatments with 3-4 mice in each group. Each mouse used in the study had phenotypic changes typical of SCCE transgenic animals.
• high dose (300 μM) of compound I-3 • low dose (30 μM) of compound I-3 • positive control (a pharmaceutical formulation (Betnovat, Glaxo SmithKline AB) containing betametasone) • negative control, vehicle (a pharmaceutical formulation lacking active substance)
The formulations (500 μl/mouse) were applied once daily (late afternoon) on the area around the ears and on the back of the mice. Mice were treated during 8 days and measurements of transepidermal water loss (TEWL) were performed during the treatment period.
Histological studies of skin morphology were performed on sacrificed mice after the last day of treatment (day 8). Tissue samples were fixed in 4% phosphate-buffered formaldehyde for 24 h in room temperature (RT) and then embedded in paraffin using standard histological procedure. To analyze tissue morphology, embedded tissue was sectioned (5 μm) and then stained with haematoxylin and Eosin (H/E) using standard histological protocols.

Setting [4] is: positive control formulation (Betnovat).

T1 sequence (P49862 30-253): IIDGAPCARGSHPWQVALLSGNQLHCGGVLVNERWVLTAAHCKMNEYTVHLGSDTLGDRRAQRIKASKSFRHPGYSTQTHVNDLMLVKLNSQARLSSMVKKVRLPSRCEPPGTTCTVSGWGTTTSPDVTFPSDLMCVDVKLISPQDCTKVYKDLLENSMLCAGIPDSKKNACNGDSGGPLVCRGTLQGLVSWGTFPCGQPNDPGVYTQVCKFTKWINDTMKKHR

As a reminder, the IC50 is the concentration that inhibits the measured activity by half. One may read the remaining activity as the signal under treatment as a percentage of the control signal. As to `COc1cc2nc(-c3ccccc3I)oc(=O)c2cc1OC` [Compound I-3, 2-(2-Iodo-phenyl)-6,7-dimethoxy-benzo[d][1,3]oxazin-4-one], the IC50 in series [1] is 100 nM. The remaining activity at 10 µM in series [1] (1 h, 10 μM compound) is 0%. Further, the “improvement of TEWL” value in series [2] is reported as “improves TEWL with approximately half the efficiency of the positive control”. In series [3] (30 μM), the Unusually thin epidermis is 0/4 and the Morphology changes is given as 1/4. Moreover, in series [3] (300 μM), the Unusually thin epidermis is reported as 0/4 and the Morphology changes is 1/4. The “effects on skin morphology” value in series [3] (both concentrations (30 μM and 300 μM), compared with vehicle group) is recorded as “positive effects on skin morphology to a higher degree then vehicle group”. For the same compound, the “side effects (unusually thin epidermis)” value in series [3] was “without the side effects”.
On to `C[C@H]1C[C@H]2[C@@H]3CCC4=CC(=O)C=C[C@]4(C)[C@@]3(F)[C@@H](O)C[C@]2(C)[C@@]1(O)C(=O)CO` [Betamethasone, reference compound], for which the “side effects (unusually thin epidermis)” value in series [3] is “side effects (unusually thin epidermis) found”. In addition, in series [3] (setting [4]), the Unusually thin epidermis is 3/3 and the Morphology changes is 0/3.
As for `Cc1cc(-c2nc3cc(Cl)ccc3c(=O)o2)ccc1[N+](=O)[O-]` [Compound I-13, 7-Chloro-2-(3-methyl-4-nitro-phenyl)-benzo[d][1,3]oxazin-4-one], the IC50 in series [1] is 2000 nM. In series [1] (1 h), the remaining activity at 1 µM amounted to 56% and the remaining activity at 5 µM came out at 36%.
The corresponding values for `O=c1oc(-c2ccc([N+](=O)[O-])cc2Cl)nc2cc(Cl)ccc12` [Compound I-2, 7-Chloro-2-(2-chloro-4-nitro-phenyl)-benzo[d][1,3]oxazin-4-one] are 100 nM, 15% and 0%.
The corresponding values for `O=c1nc(-c2ccco2)oc2ccc(Cl)cc12` [Compound I-18, 6-Chloro-2-furan-2-yl-benzo[e][1,3]oxazin-4-one] are 600 nM, 26% and 7%.
For `O=c1nc(-c2cccs2)oc2ccc(Cl)cc12` [Compound I-17, 6-Chloro-2-thiophen-2-yl-benzo[e][1,3]oxazin-4-one], the IC50 in series [1] was determined as 320 nM. Further, in series [1] (1 h), the remaining activity at 1 µM is 18% and the remaining activity at 5 µM was 4%.
As to `O=c1oc(-c2ccccc2)nc2sc3c(c12)CCCC3` [II-17, 2-Phenyl-5,6,7,8-tetrahydro-3-oxa-9-thia-1-aza-fluoren-4-one], the IC50 in series [1] was determined as 700 nM. Further, in series [1] (1 h), the remaining activity at 1 µM came to 45% and the remaining activity at 5 µM was 33%.
Consider `COc1cccc(-c2nc3sc4c(c3c(=O)o2)CCCC4)c1` [II-20, 2-(3-Methoxy-phenyl)-5,6,7,8-tetrahydro-3-oxa-9-thia-1-aza-fluoren-4-one], for which the IC50 in series [1] was 2000 nM. Besides, in series [1] (1 h), the remaining activity at 1 µM stood at 52% and the remaining activity at 5 µM was 42%.
For `Cc1nc2sc3c(c2c(=O)o1)CCCCC3` [II-22, 2-Methyl-6,7,8,9-tetrahydro-5H-3-oxa-10-thia-1-aza-benzo[a]azulen-4-one] the same measures were more than 10000 nM, 49% and 27%.

These data come from patent US7872052B2, “Use of heterocyclic compounds as SCCE inhibitors” (Arexis AB, priority 2003, dated 2011).
